Data from PubChem BioAssay (NCI).
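Assay format: 96-well plates, 48-hour exposure. Here, GI50 denotes the concentration required for 50% inhibition of growth. At the TGI there is no net growth.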

What was measured:
Assay in all cases: inhibition of tumour cell growth, NCI panel, 48 h
EKVX NSCLC = system: EKVX NSCLC
HOP-92 NSCLC = system: HOP-92 NSCLC
IGROV1 ovarian = system: IGROV1 ovarian
RPMI-8226 leukemia = system: RPMI-8226 leukemia
RXF 393 renal = system: RXF 393 renal
SF-268 CNS = system: SF-268 CNS
SK-OV-3 ovarian = system: SK-OV-3 ovarian
TK-10 renal = system: TK-10 renal
U251 CNS = system: U251 CNS
UACC-62 melanoma = system: UACC-62 melanoma
CCRF-CEM leukemia = system: CCRF-CEM leukemia

Row | Compound | TGI (EKVX NSCLC) [µM] | TGI (HOP-92 NSCLC) [µM] | TGI (IGROV1 ovarian) [µM] | TGI (RPMI-8226 leukemia) [µM] | TGI (RXF 393 renal) [µM] | TGI (SF-268 CNS) [µM] | TGI (SK-OV-3 ovarian) [µM] | TGI (TK-10 renal) [µM] | TGI (U251 CNS) [µM] | TGI (UACC-62 melanoma) [µM] | TGI (CCRF-CEM leukemia) [µM] | GI50 (CCRF-CEM leukemia) [µM] | GI50 (RPMI-8226 leukemia) [µM] | GI50 (SK-OV-3 ovarian) [µM] | GI50 (TK-10 renal) [µM] | GI50 (U251 CNS) [µM] | GI50 (UACC-62 melanoma) [µM] | GI50 (HOP-92 NSCLC) [µM] | GI50 (RXF 393 renal) [µM]
1 | S=c1[nH]n2c(COc3ccc(Cl)cc3)nnc2s1 | > 100 | > 100 | > 100 | > 100 | > 100 | > 100 | > 100 | > 100 | > 100 | > 100 |  |  |  |  |  |  |  |  | 
2 | CSCC(CO)NC(=O)/C=C/c1c(C)[nH]c(=O)[nH]c1=O (stereo not drawn) | 872 | 742 | > 875 | > 875 | > 875 | > 875 | > 875 |  | > 875 | > 875 | > 875 |  |  |  |  |  |  |  | 
3 | c1ccc2c(c1)SCCc1cn[nH]c1-2 | > 100 | > 100 | > 100 |  | > 100 | > 100 | > 100 |  | > 100 | > 100 | > 100 |  |  |  |  |  |  |  | 
4 | O=C(Sc1n[nH]c(=O)[nH]c1=O)c1cccc2nc3ccccc3nc12 | > 100 | > 100 | > 100 | > 100 | > 100 | > 100 | > 100 | > 100 | > 100 | > 100 | > 100 |  |  |  |  |  |  |  | 
5 | Nc1ccc(Cn2ccc3c4c(N)nc(N)nc4ccc32)cc1 | 23.1 | 8.7 | 18.7 | > 100 | 15.4 | 25.6 | 25.4 | 13.6 | 5.02 | 1.5 | 2.71 |  |  |  |  |  |  |  | 
6 | CC(=O)OC1CC(OC2C(O)CC(OC3C(O)CC(OC4CCC5(C)C(CCC6C5CCC5(C)C(C7=CC(=O)OC7)CCC65O)C4)OC3C)OC2C)OC(C)C1OC1OC(CO)C(O)C(O)C1O (stereo not drawn) | 0.0536 | 0.234 | 0.289 | 7.43 | 0.101 | 0.129 | 0.186 | 0.149 | 0.137 | 0.334 | > 100 |  |  |  |  |  |  |  | 
7 | O=S(O)CCCSSSCCCS(=O)O | > 100 |  |  |  | > 100 | > 100 | > 100 | > 100 | > 100 | > 100 | > 100 |  |  |  |  |  |  |  | 
8 | Cc1cccc2c1Sc1ccccc1C2NC(=O)CN(C)C (stereo not drawn) | > 100 |  | > 100 | > 100 | > 100 | > 100 | > 100 | > 100 | > 100 | > 100 | > 100 |  |  |  |  |  |  |  | 
9 | COCCNCc1ccc(-c2cc3nccc(Oc4ccc(NC(=O)C5(C(=O)Nc6ccc(F)cc6)CC5)cc4F)c3s2)nc1 |  |  |  | 5.07 |  |  | 3.78 | 4.43 | 3.79 | 4.66 | 7.06 | 2.55 | 2.05 | 1.93 | 2.21 | 1.89 | 1.89 |  | 
10 | CN(c1ccccc1)c1nc(=[N+]2CCCC2)ss1 | > 100 |  | > 100 | > 100 | 8.85 | > 100 | > 100 | > 100 | > 100 | > 100 | > 100 |  |  |  |  |  |  |  | 
11 | CO/C=C1\OC(=O)C=C1OC | > 100 | > 100 | > 100 | > 100 | > 100 | > 100 | > 100 |  | > 31.6 | > 100 | > 100 |  |  |  |  |  |  |  | 
12 | NNC(=O)c1cc([N+](=O)[O-])ccc1NC(=O)C12CC3CC(CC(C3)C1)C2 | > 100 | 51.7 | 8.53 | 35.8 | 42.2 | > 100 | 42.4 | 59.5 | 37.7 | 28 | 24.9 |  |  |  |  |  |  |  | 
13 | Cc1ccc(Nc2nc(=O)c3c([nH]c4ccccc43)s2)cc1 | 64.2 | 25.6 | 35.1 | 23.6 |  | 35.6 | > 100 | 23.9 | 25.5 | 21 | 53.3 |  |  |  |  |  |  |  | 
14 | CN(C)c1cccc(OC(=O)NCCCl)c1 | > 100 | > 100 | > 100 | > 100 | > 100 | > 100 | > 100 |  | > 100 | > 100 | > 100 | 94.6 | > 100 |  |  |  |  | > 100 | > 100
15 | O=C1C(c2c(O)[nH]c3ccc(Cl)cc23)=Nc2ccccc21 | > 53.1 | 29.5 | 19.3 | > 100 | 7.11 | 33.6 | 11.2 | 18.8 | 17.6 | > 91.3 | > 100 |  |  |  |  |  |  |  | 
16 | c1csc(-c2ccc(CNc3c4ccccc4nc4ccccc34)cc2)c1 |  | 2.81 |  | 4.8 | 2.73 |  | 29.8 | 3.28 |  | 27 | 3.91 | 1.28 | 1.85 | 11 | 1.76 |  | 6.74 | 1.26 | 1.25
17 | c1ccc2c(c1)SP1Sc3ccccc3P21 (stereo not drawn) | > 100 | > 100 | > 100 | > 100 | > 100 | > 100 | > 100 |  | > 100 | > 100 | > 100 |  |  |  |  |  |  |  | 
18 | CC1(C)N=C(c2ccccc2)SC12S[C@@H]1CCCC[C@H]1S2 | > 100 | > 100 | > 100 | > 100 | > 100 | > 100 | > 100 | > 100 | > 100 | > 100 | > 100 |  |  |  |  |  |  |  | 
